Several values for one entry are separate records, joined by “and”; a condition that tells them apart may be missing. Equal values may be shown once.
system: NA; test: not given; settings: cited from earlier work

Row | SMILES | IC50
1 | CCC(CC)O[C@@H]1C=C(C(=O)O)C[C@H](N)[C@H]1NC(C)=O [GS4071, oseltamivir carboxylate, reference compound] | […]

molecular target: Bac-NA^WT H1N1 (Influenza A virus, UniProt P03470); test: biochemical; settings: not given
Sequence (P03470 whole entry, looked up): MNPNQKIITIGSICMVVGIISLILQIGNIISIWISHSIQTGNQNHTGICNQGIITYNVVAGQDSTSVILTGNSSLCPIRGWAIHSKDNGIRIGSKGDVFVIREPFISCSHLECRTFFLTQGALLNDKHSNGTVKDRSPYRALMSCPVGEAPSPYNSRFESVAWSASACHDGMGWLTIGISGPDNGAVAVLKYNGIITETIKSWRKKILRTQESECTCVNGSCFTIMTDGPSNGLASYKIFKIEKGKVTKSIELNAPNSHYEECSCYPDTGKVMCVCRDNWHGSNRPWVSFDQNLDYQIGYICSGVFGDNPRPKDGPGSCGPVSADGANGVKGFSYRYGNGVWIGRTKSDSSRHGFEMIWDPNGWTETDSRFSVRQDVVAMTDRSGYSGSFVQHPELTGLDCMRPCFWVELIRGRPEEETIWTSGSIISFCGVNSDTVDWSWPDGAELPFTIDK

Row | SMILES | IC50
2 | CC12CCC(O)CC1CCC1C2CCC2(C)C(C3=CC(=O)OC3)CCC12O (stereo not drawn) [BPR1P0008S0] | 2 µM
3 | CC12CCC(O)CC1CCC1C2CC(O)C2(C)C(C3=CC(=O)OC3)CCC12O (stereo not drawn) [BPR1P0007S0] | 1.79 ± 0.01 µM
4 | CC1OC(OC2CC(O)C3(CO)C4C(O)CC5(C)C(C6COC(O)C6)CCC5(O)C4CCC3(O)C2)C(O)C(O)C1O (stereo not drawn) [BPR1P0003S0] | 2.18 ± 0.03 µM

molecular target: Wild type H5N1 NA (Influenza A virus, UniProt Q6DPL2); test: biochemical; type: biochemical; settings: not given
Sequence (Q6DPL2 whole entry, looked up): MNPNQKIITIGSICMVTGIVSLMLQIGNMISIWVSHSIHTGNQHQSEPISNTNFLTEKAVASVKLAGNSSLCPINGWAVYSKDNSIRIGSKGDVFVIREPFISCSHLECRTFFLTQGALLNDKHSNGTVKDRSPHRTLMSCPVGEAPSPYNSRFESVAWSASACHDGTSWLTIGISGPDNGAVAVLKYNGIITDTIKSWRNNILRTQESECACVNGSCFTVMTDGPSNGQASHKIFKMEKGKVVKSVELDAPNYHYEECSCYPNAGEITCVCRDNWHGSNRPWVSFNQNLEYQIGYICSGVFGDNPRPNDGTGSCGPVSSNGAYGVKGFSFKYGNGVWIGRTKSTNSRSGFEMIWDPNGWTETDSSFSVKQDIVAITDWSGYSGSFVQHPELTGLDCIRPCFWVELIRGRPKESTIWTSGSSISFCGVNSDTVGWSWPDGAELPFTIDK

Row | SMILES | IC50
5 | CC12CCC(O)CC1CCC1C2CCC2(C)C(C3=CC(=O)OC3)CCC12O (stereo not drawn) [BPR1P0008S0] | 2.56 ± 0.2 µM
6 | Nc1ccc2c(O)c(/N=N/c3ccc4c(O)cc(S(=O)(=O)O)cc4c3)c(S(=O)(=O)O)cc2c1 [NSC162535] | 18.7 ± 1.89 µM
7 | O=C(Nc1ccc2c(O)c(/N=N/c3ccc4c(O)cc(S(=O)(=O)O)cc4c3)c(S(=O)(=O)O)cc2c1)c1ccccc1 [NSC45609] | 13 ± 0.78 µM
8 | CC12CCC(O)CC1CCC1C2CC(O)C2(C)C(C3=CC(=O)OC3)CCC12O (stereo not drawn) [BPR1P0007S0] | 2.49 ± 1.43 µM
9 | O=C(Nc1ccc2c(O)cc(S(=O)(=O)O)cc2c1)Nc1ccc2c(O)cc(S(=O)(=O)O)cc2c1 [NSC45174] | 16.7 ± 1.67 µM
10 | CC1OC(OC2CC(O)C3(CO)C4C(O)CC5(C)C(C6COC(O)C6)CCC5(O)C4CCC3(O)C2)C(O)C(O)C1O (stereo not drawn) [BPR1P0003S0] | 2.62 ± 0.96 µM

same assay, conditions: read-out: IC50 Wild type H5N1

Row | SMILES | IC50
11 | Nc1ccc2c(O)c(/N=N/c3ccc4c(O)cc(S(=O)(=O)O)cc4c3)c(S(=O)(=O)O)cc2c1 [NSC162535] | < 20 µM
12 | O=C(Nc1ccc2c(O)c(/N=N/c3ccc4c(O)cc(S(=O)(=O)O)cc4c3)c(S(=O)(=O)O)cc2c1)c1ccccc1 [NSC45609] | < 20 µM
13 | O=C(Nc1ccc2c(O)cc(S(=O)(=O)O)cc2c1)Nc1ccc2c(O)cc(S(=O)(=O)O)cc2c1 [NSC45174] | < 20 µM

molecular target: Wild type H1N1 NA (Influenza A virus, UniProt P03470); test: biochemical; settings: IC50 Wild type H1N1
Sequence (P03470 whole entry, looked up): as the sequence (P03470 whole entry, looked up) above

Row | SMILES | IC50
14 | Nc1ccc2c(O)c(/N=N/c3ccc4c(O)cc(S(=O)(=O)O)cc4c3)c(S(=O)(=O)O)cc2c1 [NSC162535] | < 10 µM and 4.49 µM
15 | O=C(Nc1ccc2c(O)c(/N=N/c3ccc4c(O)cc(S(=O)(=O)O)cc4c3)c(S(=O)(=O)O)cc2c1)c1ccccc1 [NSC45609] | < 10 µM and 3.67 µM
16 | O=C(Nc1ccc2c(O)cc(S(=O)(=O)O)cc2c1)Nc1ccc2c(O)cc(S(=O)(=O)O)cc2c1 [NSC45174] | < 10 µM and 5.29 µM

same assay, conditions: NA inhibition, IC50 H1N1

Row | SMILES | IC50
17 | CC12CCC(O)CC1CCC1C2CCC2(C)C(C3=CC(=O)OC3)CCC12O (stereo not drawn) [BPR1P0008S0] | 31.4 ± 7.33 µM
18 | CC12CCC(O)CC1CCC1C2CC(O)C2(C)C(C3=CC(=O)OC3)CCC12O (stereo not drawn) [BPR1P0007S0] | 36.5 ± 5.02 µM
19 | CC1OC(OC2CC(O)C3(CO)C4C(O)CC5(C)C(C6COC(O)C6)CCC5(O)C4CCC3(O)C2)C(O)C(O)C1O (stereo not drawn) [BPR1P0003S0] | 37.3 ± 13.4 µM

system: Influenza A virus (A/WSN/33) H1N1; test: microbe, parasite or virus in culture; type: cell-based; settings: not given

Row | SMILES | concentration showing consistent blue color (living cells) in CPE assay
20 | Nc1ccc2c(O)c(/N=N/c3ccc4c(O)cc(S(=O)(=O)O)cc4c3)c(S(=O)(=O)O)cc2c1 [NSC162535] | ≥ 50 µM

same assay, conditions: Influenza A virus, MDCK, read-out: IC50 H1N1 (concentration to reduce the CPE of the virus by 50%)

Row | SMILES | IC50
21 | Nc1ccc2c(O)c(/N=N/c3ccc4c(O)cc(S(=O)(=O)O)cc4c3)c(S(=O)(=O)O)cc2c1 [NSC162535] | 61.5 µM
22 | O=C(Nc1ccc2c(O)c(/N=N/c3ccc4c(O)cc(S(=O)(=O)O)cc4c3)c(S(=O)(=O)O)cc2c1)c1ccccc1 [NSC45609] | 16.5 µM
23 | O=C(Nc1ccc2c(O)cc(S(=O)(=O)O)cc2c1)Nc1ccc2c(O)cc(S(=O)(=O)O)cc2c1 [NSC45174] | 36.5 µM

same assay, conditions: read-out: IC50 H1N1 (concentration to reduce the CPE of the virus by 50%)

Row | SMILES | IC50
24 | Nc1ccc2c(O)c(/N=N/c3ccc4c(O)cc(S(=O)(=O)O)cc4c3)c(S(=O)(=O)O)cc2c1 [NSC162535] | 61.45 ± 0.17 µM
25 | O=C(Nc1ccc2c(O)c(/N=N/c3ccc4c(O)cc(S(=O)(=O)O)cc4c3)c(S(=O)(=O)O)cc2c1)c1ccccc1 [NSC45609] | 16.5 ± 0.63 µM
26 | O=C(Nc1ccc2c(O)cc(S(=O)(=O)O)cc2c1)Nc1ccc2c(O)cc(S(=O)(=O)O)cc2c1 [NSC45174] | 36.5 ± 1.19 µM
27 | CCC(CC)O[C@@H]1C=C(C(=O)O)C[C@H](N)[C@H]1NC(C)=O [GS4071, oseltamivir carboxylate, reference compound] | 0.02 ± 0.0031 µM

system: not listed separately; test: in vitro; settings: dog

Row | SMILES | CC50
28 | Nc1ccc2c(O)c(/N=N/c3ccc4c(O)cc(S(=O)(=O)O)cc4c3)c(S(=O)(=O)O)cc2c1 [NSC162535] | > 100 µM
29 | O=C(Nc1ccc2c(O)c(/N=N/c3ccc4c(O)cc(S(=O)(=O)O)cc4c3)c(S(=O)(=O)O)cc2c1)c1ccccc1 [NSC45609] | > 100 µM
30 | O=C(Nc1ccc2c(O)cc(S(=O)(=O)O)cc2c1)Nc1ccc2c(O)cc(S(=O)(=O)O)cc2c1 [NSC45174] | > 100 µM
